Test results: PMC7704979, “Effect of the versatile bifunctional chelator AAZTA^5 on the radiometal labelling properties and the in vitro performance of a gastrin releasing peptide receptor antagonist” (EJNMMI Radiopharmacy and Chemistry, 2020)

Legend:
[1] = target: T1, GRPr (Homo sapiens, UniProt P30550); experiment: Saturation binding studies on intact PC3 cells; conditions: for Bmax (concentration of the radiotracer required to saturate the receptors): intact PC3 cells, 4 °C, 120 min, normalized for 1 × 10^6 cells per well
T1 construct: For receptor saturation analysis, PC3 cells were seeded at a density of 0.8–1 million cells per well; endogenous in cells; host or cells: PC3 (human prostate adenocarcinoma cell line), intact cells
Method: For receptor saturation analysis, PC3 cells were seeded at a density of 0.8–1 million cells per well in 6-well plates and incubated overnight with medium (DMEM: F12 (1:1) containing 1% FBS, 100 U/mL penicillin and 100 μg/mL streptomycin). The next day, the medium was removed, the cells washed and incubated for 1 h at 37 °C with fresh medium. […] After the addition of the radioligands, the cells were incubated for 120 min at 4 °C. Non-specific binding was determined in the presence of Tyr^4-Bombesin at a final concentration of 1 μM. Then the cells were washed twice with ice-cold PBS, followed by solubilization with 1 N NaOH and the cell-associated radioactivity was measured using a gamma-counter. Specific binding was plotted against the total molar concentration of the added radiotracer. The Kd values and the concentration of the radiotracer required to saturate the receptors (Bmax) were determined by nonlinear regression using GraphPad (Prism 8 Graph Pad Software, San Diego, CA). For all the cell studies the values are normalized for 1 × 10^6 cells per well and all data are from two independent experiments with triplicates in each experiment.

[2] = system: PC3 cells; experiment: Internalization studies in PC3 cells; assay type: cell-based, human; conditions: 37 °C; for specifically internalized activity / total cell associated uptake: 6 h; for total cell associated uptake: % of applied radioactivity
Method: For internalization experiments, PC3 cells were seeded into 6-well plates and treated as described above. […] To determine nonspecific membrane binding and internalization, excess of Tyr^4-Bombesin (final concentration 1 μΜ) was added to selected wells. At each time point, the internalization was stopped by removing the medium and washing the cells twice with ice-cold PBS. To remove the receptor-bound radioligand, an acid wash was carried out twice with a 0.1 M glycine buffer pH 2.8 for 5 min on ice. Finally, cells were solubilized with 1 N NaOH. The radioactivity of the culture medium, the receptor-bound, and the internalized fractions were measured in a γ-counter.

[3] = system: PC3 cells; experiment: In vitro therapy study, trypan blue exclusion viability of PC3 cells; assay type: cell-based, human; conditions: monotherapy (rapamycin 10 nM or ^177Lu-labelled LF1 1.85 MBq), 72 h
Method: For the in vitro therapy studies, PC3 cells were seeded at a density of 50,000–100,000 cells (depending on the investigating time point: 100000, 75,000 and 50,000 cells for 24, 48, 72 h respectively) in 12-well plates and incubated overnight with cultivation medium at 37 °C and 5% CO2. The next day, the medium was removed, the cells washed, and culture medium containing either rapamycin (10 nM, dissolved in dimethyl sulfoxide (DMSO)) or DMSO (control, the final concentration of DMSO in the culture medium was 0.5%) was added. The plates were incubated at 37 °C and 5% CO2 for a period of 6 h. Afterwards, the medium containing rapamycin or DMSO was removed and fresh medium was added in each well. […] The viability of the cells was accessed by the trypan blue exclusion assay after incubation at 37 °C and 5% CO2 for 24, 48 and 72 h. The experiment was performed twice in triplicate.

T1 sequence (P30550 whole entry): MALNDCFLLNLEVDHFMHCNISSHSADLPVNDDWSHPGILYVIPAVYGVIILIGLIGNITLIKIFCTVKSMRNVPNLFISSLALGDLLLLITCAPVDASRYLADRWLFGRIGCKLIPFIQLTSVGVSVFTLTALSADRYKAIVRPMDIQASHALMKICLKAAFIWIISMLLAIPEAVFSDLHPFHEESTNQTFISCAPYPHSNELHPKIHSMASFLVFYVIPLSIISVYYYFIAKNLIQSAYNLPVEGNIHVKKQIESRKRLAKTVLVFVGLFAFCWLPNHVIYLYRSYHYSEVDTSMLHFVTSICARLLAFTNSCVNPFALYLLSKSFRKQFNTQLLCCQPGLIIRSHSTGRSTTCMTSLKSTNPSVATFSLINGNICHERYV

Structure (SMILES): CC(C)C[C@H](NC(=O)CC(O)[C@H](CC(C)C)NC(=O)[C@H](Cc1c[nH]cn1)NC(=O)CNC(=O)[C@@H](NC(=O)[C@H](C)NC(=O)[C@H](Cc1c[nH]c2ccccc12)NC(=O)[C@H](CCC(N)=O)NC(=O)[C@@H](Cc1ccccc1)NC(=O)CN1CCC(NC(=O)CCCCC2(N(CC(=O)O)CC(=O)O)CN(CC(=O)O)CCN(CC(=O)O)C2)CC1)C(C)C)C(N)=O (some centres unmarked) [^177Lu-labelled LF1, metal not drawn]
- Bmax (concentration of the radiotracer required to saturate the receptors) ([1]; listed as 177/natLu-LF1): 0.8 ± 0.05 nM
- specifically internalized activity [2]: 8.9 ± 0.8%
- total cell associated uptake [2]: 34.5 ± 2.3%

Structure (SMILES): CC(C)C[C@H](NC(=O)CC(O)[C@H](CC(C)C)NC(=O)[C@H](Cc1c[nH]cn1)NC(=O)CNC(=O)[C@@H](NC(=O)[C@H](C)NC(=O)[C@H](Cc1c[nH]c2ccccc12)NC(=O)[C@H](CCC(N)=O)NC(=O)[C@@H](Cc1ccccc1)NC(=O)CN1CCC(NC(=O)CCCCC2(N(CC(=O)O)CC(=O)O)CN(CC(=O)O)CCN(CC(=O)O)C2)CC1)C(C)C)C(N)=O (some centres unmarked) [^111In-labelled LF1, metal not drawn]
- Bmax (concentration of the radiotracer required to saturate the receptors) ([1]; listed as 111/natIn-LF1): 0.6 ± 0.06 nM
- specifically internalized activity [2]: 9.2 ± 0.5%
- total cell associated uptake [2]: 38.3 ± 2.5%

Structure (SMILES): CC(C)C[C@H](NC(=O)CC(O)[C@H](CC(C)C)NC(=O)[C@H](Cc1c[nH]cn1)NC(=O)CNC(=O)[C@@H](NC(=O)[C@H](C)NC(=O)[C@H](Cc1c[nH]c2ccccc12)NC(=O)[C@H](CCC(N)=O)NC(=O)[C@@H](Cc1ccccc1)NC(=O)CN1CCC(NC(=O)CN2CCN(CC(=O)O)CCN(CC(=O)O)CCN(CC(=O)O)CC2)CC1)C(C)C)C(N)=O (some centres unmarked) [^177/natLu-RM2, metal not drawn, reference compound]
- Bmax (concentration of the radiotracer required to saturate the receptors) [1]: 0.8 ± 0.03 nM

Structure (SMILES): CC(C)C[C@H](NC(=O)CC(O)[C@H](CC(C)C)NC(=O)[C@H](Cc1c[nH]cn1)NC(=O)CNC(=O)[C@@H](NC(=O)[C@H](C)NC(=O)[C@H](Cc1c[nH]c2ccccc12)NC(=O)[C@H](CCC(N)=O)NC(=O)[C@@H](Cc1ccccc1)NC(=O)CN1CCC(NC(=O)CCCCC2(N(CC(=O)O)CC(=O)O)CN(CC(=O)O)CCN(CC(=O)O)C2)CC1)C(C)C)C(N)=O (some centres unmarked) [^68Ga-labelled LF1, metal not drawn]
- Bmax (concentration of the radiotracer required to saturate the receptors) ([1]; listed as 68/natGa-LF1): 0.4 ± 0.02 nM
- factor of lower affinity compared to ^111/natIn-LF1 ([1]; ratio of Kd values, PC3 cells): ~3
- internalized activity ([2]; 4 h): 2.8 ± 0.5%

Structure (SMILES): CO[C@H]1C[C@@H]2CC[C@@H](C)[C@@](O)(O2)C(=O)C(=O)N2CCCC[C@H]2C(=O)O[C@H]([C@H](C)C[C@@H]2CC[C@@H](O)[C@H](OC)C2)CC(=O)[C@H](C)/C=C(\C)[C@@H](O)[C@@H](OC)C(=O)[C@H](C)C[C@H](C)/C=C/C=C/C=C/1C [rapamycin]
- cell viability [3]: approx. 50%
